Test [1] concerns E.coli JT39. As to the kind of experiment: Antibacterial activity, E. coli JT39 (Table 2). In kind it is cell-based. The note with it: Escherichia coli, compound alone.
Test [2] relates to S.aureus Russell. In words: Antibacterial activity, S. aureus Russell (Table 2). In kind it is cell-based. To be noted: Staphylococcus aureus, compound alone.

SMILES strings stand for the structures. Converted amounts (≈) assume the structure as drawn.

The values that follow come from patent publication US4524073A, “β-Lactam compounds” (Beecham Group p.1.c., priority 1982, dated 1985).

`CS(=O)(=O)NCCNC/C=C1\O[C@@H]2CC(=O)N2[C@H]1C(=O)O` [Example 12, 9-N-(2-methylsulphonamidoethyl)aminodeoxyclavulanic acid]: the results for the MIC in test [1] and in test [2] were 31.2 µg/mL (≈ 97.7 µM) and 8 µg/mL (≈ 25.1 µM), respectively.

As to `O=C(O)[C@H]1/C(=C/CNCCc2ccccn2)O[C@@H]2CC(=O)N21` [Example 4, 9-N-(2-Pyrid-2'-ylethyl)aminodeoxyclavulanic acid], the minimal inhibitory concentration (MIC) in test [1] was found to be 31.2 µg/mL (≈ 103 µM); in test [2], 4 µg/mL (≈ 13.2 µM).

`O=C(O)[C@H]1/C(=C/CNCCCn2ccnc2)O[C@@H]2CC(=O)N21` [Example 18]: the MIC in test [1] was 31.2 µg/mL (≈ 102 µM); in test [2], 8 µg/mL (≈ 26.1 µM).

Take `O=C(O)[C@H]1/C(=C/CNCCc2ccncc2)O[C@@H]2CC(=O)N21` [Example 5, 9-N-(2-Pyrid-4'-ylethyl)amino deoxyclavulanic acid]: the MIC in test [1] came to 31.2 µg/mL (≈ 103 µM); in test [2] it was 8 µg/mL (≈ 26.4 µM).

`NC(=O)CCNC/C=C1\O[C@@H]2CC(=O)N2[C@H]1C(=O)O` [Example 28, 9-N-(2-carbamoylethyl)aminodeoxyclavulanic acid]: the MIC in test [1] and in test [2] was 16 µg/mL (≈ 59.4 µM) throughout.

As for `CC(=O)OCCCCNC/C=C1\O[C@@H]2CC(=O)N2[C@H]1C(=O)O` [Example 20, 9-N-(4-Acetoxybutyl)aminodeoxyclavulanic acid], the figures for the minimum inhibitory concentration (MIC) in test [1] and in test [2] were 31.2 µg/mL (≈ 99.9 µM) and 16 µg/mL (≈ 51.2 µM), respectively.

With `O=C(O)[C@H]1/C(=C/CNCCS(=O)(=O)c2ccccc2)O[C@@H]2CC(=O)N21` [Example 23, 9-N-[2-(phenylsulphonyl)ethyl]aminodeoxyclavulanic acid], the MIC in test [1] is 31.2 µg/mL (≈ 85.2 µM); in test [2] it was 16 µg/mL (≈ 43.7 µM).

Turning to `CN(C)C(=O)NCCNC/C=C1\O[C@@H]2CC(=O)N2[C@H]1C(=O)O` [Example 22 (2nd compound), 9-N-(N'N'-dimethylureido)ethylaminodeoxyclavulanic acid], the results for the MIC in test [1] and in test [2] were 62.5 µg/mL (≈ 200 µM) and 4 µg/mL (≈ 12.8 µM), respectively.

For the compound `CCOC(CCCNC/C=C1\O[C@@H]2CC(=O)N2[C@H]1C(=O)O)OCC` [Example 19, 9-N-(4,4-Diethoxybutyl)amino deoxyclavulanic acid], the MIC amounted to 31.2 µg/mL (≈ 91.1 µM) in test [1] and 16 µg/mL (≈ 46.7 µM) in test [2].

With `CC(C)(CCCNC/C=C1\O[C@@H]2CC(=O)N2[C@H]1C(=O)O)[N+](=O)[O-]` [Example 21, 9-N-[4-Methyl-4-nitropentyl]aminodeoxyclavulanic acid], the minimum inhibitory concentration (MIC) in test [1] was found to be 8 µg/mL (≈ 24.4 µM); in test [2], 4 µg/mL (≈ 12.2 µM).

For `CS(=O)(=O)NCCCNC/C=C1\O[C@@H]2CC(=O)N2[C@H]1C(=O)O` [Example 13, 9-N-(3-Methylsulphonamidopropyl)aminodeoxyclavulanic acid], the figures for the MIC in test [1] and in test [2] were 31.2 µg/mL (≈ 93.6 µM) and 16 µg/mL (≈ 48 µM), respectively.

Take `O=C(O)[C@H]1/C(=C/CNCCNc2ccccc2)O[C@@H]2CC(=O)N21` [Example 29, 9-N-(2-Phenylaminoethyl)aminodeoxyclavulanic acid]: the MIC in test [1] worked out at 16 µg/mL (≈ 50.4 µM); in test [2], 4 µg/mL (≈ 12.6 µM).

As for `O=C(O)[C@H]1/C(=C/CNCCc2c[nH]c3ccccc23)O[C@@H]2CC(=O)N21` [Example 26, 9-N-(2-Indol-3'-ylethyl)aminodeoxyclavulanic acid], the MIC in test [1] was 8 µg/mL (≈ 23.4 µM); in test [2], not above 0.5 µg/mL.

Consider `O=C(CCNC/C=C1\O[C@@H]2CC(=O)N2[C@H]1C(=O)O)NCc1ccccc1` [Example 25, 9-N-(3-N-Benzylcarbamoyleth-1-yl)aminodeoxyclavulanic acid], for which the results for the MIC in test [1] and in test [2] were 8 µg/mL (≈ 22.3 µM) and 2 µg/mL (≈ 5.57 µM), respectively.

For `O=C(O)[C@H]1/C(=C/CNCCCl)O[C@@H]2CC(=O)N21` [Example 2, 9-N-(2-Chloroethyl)amino-deoxyclavulanic acid], the MIC in test [1] was 31.2 µg/mL (≈ 120 µM); in test [2], 8 µg/mL (≈ 30.7 µM).

Turning to `COC(CNC/C=C1\O[C@@H]2CC(=O)N2[C@H]1C(=O)O)OC` [Example 1, 9-N-(2,2-Dimethoxyethyl)amino deoxyclavulanate], the MIC in test [1] was 16 µg/mL (≈ 55.9 µM); in test [2] it was 8 µg/mL (≈ 27.9 µM).

`O=C(O)[C@H]1/C(=C/CNCC(O)c2ccccc2)O[C@@H]2CC(=O)N21` (stereo partly shown) [Example 30, 9-N-(2-Hydroxy-2-phenylethyl)aminodeoxyclavulanic acid]: the figures for the MIC in test [1] and in test [2] were 31.2 µg/mL (≈ 98 µM) and 2 µg/mL (≈ 6.28 µM), respectively.

In general, MIC refers to the smallest concentration in the dilution series that meets the test's criterion for growth inhibition.
